Assay [1] deals with S. aureus. The assay is described as follows: Inhibition of short-term bacterial growth (absorbance at 450 nm). It is filed as cell-based. The settings on record: Staphylococcus aureus, 3.5 h, read-out: GI50 S. aureus growth. The procedure: (§1) Compound 3, being the best antibacterial derivative, was chosen for further evaluation on its antibacterial effect to inhibit short-term S. aureus and MRSA growth (Figure 2). This includes the GI50 of tiamulin fumarate for S. aureus and MRSA.
(§2) The inhibition activities of test compounds were evaluated by measuring the absorbance of the bacterial suspension. In brief, inoculums were prepared from blood slants and adjusted to approximately 10^6 CFU/mL in Muellere-Hinton broth. The 0.0625, 0.125, 0.25, 0.5, 1, and 2 µM of tested compounds were prepared and added to the prepared inoculums. A sample of inoculum with no compound was used as control. The absorbance of bacterial suspension at 450 nm was measured using an UV spectrophotometer after 3.5 h of incubation, and the inhibition was calculated as 1 − (A^P/A^0), where A^p and A^0 are the absorbance of bacterial suspension in the presence and absence of compounds, respectively. The same procedure was independently repeated in triplicate.

Assay [2] has as its system MRSA. The description is as above. It is filed as cell-based. The settings on record: Staphylococcus aureus, 3.5 h incubation, Mueller-Hinton broth. The procedure:
as §1, §2

Assay [3] deals with S. aureus. As to the kind of experiment: Oxford cup assay, zone of inhibition. The settings on record: Staphylococcus aureus. Type of assay: cell-based. How it is done:
(§3) The Oxford cup assays were carried out to evaluate the antibacterial activities against the above-mentioned six bacterial strains. The zones of inhibition for two concentrations (320 and 160 μg/mL) of the synthetic compounds and tiamulin fumarate were measured. The results of Oxford cup assay correspond with that obtained by agar dilution method (MICs) as a whole.
(§4) The procedure for Oxford cup assays was the same as that previously reported. Briefly, inoculums were prepared in 0.9% saline using McFarland standard and spread uniformly on nutrient agar plates. The 320 and 160 µg/mL of all the tested compounds were added individually into the Oxford cups that were placed at equal distances above the agar surfaces. The zone of inhibition for each concentration was measured after a 24–36 h incubation at 37 °C. The same procedure was repeated in triplicate.

Assay [4] concerns MRSA. As to the kind of experiment: Oxford cup assay, zone of inhibition. Type of assay: cell-based. The settings on record: Staphylococcus aureus. The procedure:
as §3, §4

For a further assay, the system named is S. warneri. As to the kind of experiment: Oxford cup assay, zone of inhibition. The settings on record: Staphylococcus warneri. It is filed as cell-based. How it is done:
as §3, §4

For a further assay, the system named is S. haemolyticus. As to the kind of experiment: Oxford cup assay, zone of inhibition. Type of assay: cell-based. The settings on record: Staphylococcus haemolyticus. The procedure:
as §3, §4

The test system of the next assay is E. coli. As to the kind of experiment: Oxford cup assay, zone of inhibition. It is filed as cell-based. The settings on record: Escherichia coli. The procedure: as §3, §4
For another assay, the system named is S. vitulinus. The assay is described as follows: Oxford cup assay, zone of inhibition. Type of assay: cell-based, Staphylococcus vitulinus. The settings on record: Mammaliicoccus vitulinus. The procedure:
as §3, §4

Assay [5] concerns Staphylococcus aureus (S. aureus). As to the kind of experiment: MIC testing, agar dilution method. Type of assay: cell-based. The settings on record: 36.5 °C, 24–48 h. The text has this:
(§5) The synthesized pleuromutilin derivatives 3 and 4a–l, with tiamulin fumarate used a as reference drug, were screened for their in vitro antibacterial activity against Escherichia coli (E. coli), Staphylococcus aureus (S. aureus), Methicillin-resistant Staphylococcus aureus (MRSA), Staphylococcus vitulinus (S. vitulinus), Staphylococcus warneri (S. warneri), and Staphylococcus haemolyticus (S. haemolyticus). The antibacterial activities are reported in Table 1 as the minimum inhibitory concentration (MIC) using the agar dilution method. The MICs of the 13 new pleuromutilin derivatives in vitro against E. coli ranged from 10 to 80 μg/mL; against S. aureus, MRSA, S. vitulinus, S. warneri, and S. haemolyticus ranged from 0.156 to 40 μg/mL, respectively.
(§6) The MIC for the synthesized compounds (3 and 4a–l) and tiamulin fumarate used as a reference drug were determined using the agar dilution method according to the National Committee for Clinical Laboratory Standards (NCCLS). Tested compounds were dissolved in 25%–40% DMSO to a solution with a concentration of 1280 µg/mL, whereas tiamulin fumarate was directly dissolved in 10 mL of distilled water at the same concentration as the tested compounds. All the solutions were then diluted twofold with sterile water to provide 11 dilutions (final concentration is 0.625 µg/mL). A 2 mL volume of the 2-fold serial dilution of each test compound/drug was incorporated into 18 mL of hot Muellere-Hinton agar medium. Inoculums, including five Gram (+), S. aureus, MRSA, S. vitulinus, S. warneri, S. haemolyticus, and one Gram (−), E. coli were prepared from blood slants and adjusted to approximately 10^5–10^6 CFU/mL with sterile saline (0.90% NaCl). A 10 µL amount of bacterial suspension was spotted onto Muellere-Hinton agar plates containing serial dilutions of the compounds/drug. The plates were incubated at 36.5 °C for 24–48 h. The same procedure was repeated in triplicate.
(In general: Agar dilution tests growth on a series of plates holding different concentrations.)

In assay [6] the test system is Staphylococcus vitulinus (S. vitulinus). The assay is described as follows: MIC testing, agar dilution method. Type of assay: cell-based. The settings on record: Mammaliicoccus vitulinus, 36.5 °C, 24–48 h.
Text: as §5, §6

For assay [7], the system named is Staphylococcus haemolyticus (S. haemolyticus). The assay is described as follows: MIC testing, agar dilution method. It is filed as cell-based. The settings on record: 36.5 °C, 24–48 h.
Text: as §5, §6

Assay [8] deals with Methicillin-resistant Staphylococcus aureus (MRSA). As to the kind of experiment: MIC testing, agar dilution method. Type of assay: cell-based. The settings on record: 36.5 °C, 24–48 h.
Text: as §5, §6

In assay [9] the test system is Staphylococcus warneri (S. warneri). As to the kind of experiment: MIC testing, agar dilution method. It is filed as cell-based. The settings on record: 36.5 °C, 24–48 h.
Text: as §5, §6

Assay [10] relates to Escherichia coli (E. coli). As to the kind of experiment: MIC testing, agar dilution method. Type of assay: cell-based. The settings on record: 36.5 °C, 24–48 h.
Text: as §5, §6

Structures can show the parent of a compound that is named as a salt.

Broadly, the GI50 is the concentration at which growth is held to half of that of the control. Broadly, the zone of inhibition is the size of the clear area around the sample on an inoculated plate. The low end stands for a weaker effect on the plate, the high end for a stronger effect on the plate. In general, MIC refers to the lowest concentration found to suppress growth. Consider `C=C[C@]1(C)C[C@@H](OC(=O)CSCCN(CC)CC)[C@]2(C)[C@H](C)CC[C@]3(CCC(=O)[C@H]32)[C@@H](C)[C@@H]1O` [Tiamulin, tiamulin fumarate, reference compound], for which the GI50 with S. aureus [1] amounted to 98.3 nM; in the assay on MRSA [2], 254 nM. Besides, the zone of inhibition at 160 µg/mL in the assay on S. aureus [3] (160 µg/mL) worked out at 25.1 mm; in the assay on MRSA [4] (160 µg/mL), 28.1 mm; in the assay on S. warneri (160 µg/mL), 22.4 mm; in the assay with S. haemolyticus (160 µg/mL) it was 28.8 mm; with E. coli (160 µg/mL), 25.8 mm; in the assay on S. vitulinus (160 µg/mL), 18.6 mm. Also, the zone of inhibition at 320 µg/mL in the assay with S. aureus [3] (320 µg/mL) amounted to 28.2 mm; in the assay with MRSA [4] (320 µg/mL) it was 30.5 mm; in the assay on S. warneri (320 µg/mL), 30.5 mm; in the assay on S. haemolyticus (320 µg/mL), 31.5 mm; in the assay on E. coli (320 µg/mL), 27.1 mm; with S. vitulinus (320 µg/mL), 30.9 mm. Besides, the MIC in [5] is 0.156 µg/mL; in [6] it was 0.156 µg/mL; in assay [7], 0.156 µg/mL; in assay [8], 0.156 µg/mL; in [9], 0.156 µg/mL; in [10], 1.25 µg/mL.

The values are drawn from article PMC6273978, “Synthesis and Pharmacological Evaluation of Novel Pleuromutilin Derivatives with Substituted Benzimidazole Moieties” (Molecules, 2016).
